44 compounds from ChEMBL document CHEMBL2057199, “Development of novel M1 antagonist scaffolds through the continued optimization of the MLPCN probe ML012” (Bioorg Med Chem Lett, 2012) can be followed below.

In experiment [1] the target is T1, Muscarinic acetylcholine receptor M1 (Homo sapiens) (UniProt P11229).
T1 sequence (whole entry): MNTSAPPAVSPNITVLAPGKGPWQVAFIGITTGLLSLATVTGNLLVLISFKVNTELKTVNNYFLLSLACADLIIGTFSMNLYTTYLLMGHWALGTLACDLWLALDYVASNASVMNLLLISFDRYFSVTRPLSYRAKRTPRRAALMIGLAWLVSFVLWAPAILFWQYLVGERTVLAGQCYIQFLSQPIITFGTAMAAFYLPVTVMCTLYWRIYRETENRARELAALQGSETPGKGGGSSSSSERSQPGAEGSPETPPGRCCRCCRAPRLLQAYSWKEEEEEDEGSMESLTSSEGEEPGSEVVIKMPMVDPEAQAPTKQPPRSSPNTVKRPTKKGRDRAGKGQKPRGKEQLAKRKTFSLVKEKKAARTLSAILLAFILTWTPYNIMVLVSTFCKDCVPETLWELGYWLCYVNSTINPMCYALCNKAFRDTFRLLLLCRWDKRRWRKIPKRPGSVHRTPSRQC
Kind of experiment: Antagonist activity at human muscarinic M1 receptor expressed in CHO cells assessed as inhibition of acetylcholine-induced calcium mobilization at 30 uM measured after 15 mins by fluorescence analysis. Details: scale not given: the % may be the effect or the level left. The experiment is classed as functional, cell-based. In general terms: A change in cytosolic calcium serves as a functional read-out for many receptors and channels.

Experiment [2] concerns the target T2, Muscarinic acetylcholine receptor M1 (Homo sapiens, UniProt P11229).
T2 sequence (P11229 whole entry): T1 sequence (whole entry)
Kind of experiment: (§1) Antagonist activity at human muscarinic M1 receptor expressed in CHO cells assessed as inhibition of acetylcholine-induced calcium mobilization by fluorescence analysis. It is filed as functional, cell-based.

Experiment [3] deals with T1, Muscarinic acetylcholine receptor M1 (Homo sapiens). Kind of experiment: Displacement of [3H]NMS from human muscarinic M1 receptor. Background: Displacement assays read how much labelled ligand stays bound in the presence of the test substance.
The target is the same in experiment [4]. Described as §1. It is filed as functional, cell-based.
Experiment [5] has the same target. Briefly: Antagonist activity at human muscarinic M1 receptor assessed as rightward shift in acetylcholine concentration response curve. It is filed as functional.

The source made the active and inactive calls. The rule behind the calls is not given here. Bounds are passed on as bounds.

For `Cc1ccnc(S(=O)(=O)N2CC(C(=O)N3CCN(c4ccncc4)CC3)C2)c1`, the Activity in experiment [1] worked out at 41.3%. In addition, the IC50 in experiment [2] (read-out: IC50) is greater than 10 µM.

Regarding `O=C(C1CN(S(=O)(=O)c2ccc3c(c2)CCO3)C1)N1CCN(c2ccncc2)CC1`, the Activity in experiment [1] was determined as 3.6%. Besides, the IC50 in experiment [2] (read-out: IC50) was determined as 0.13 µM.

Regarding `O=C(C1CN(S(=O)(=O)c2cccc3nonc23)C1)N1CCN(c2ccncc2)CC1`, the IC50 in experiment [2] (read-out: IC50) was 0.43 µM.

Take `O=C(C1CN(S(=O)(=O)c2cccc(Cl)c2Cl)C1)N1CCN(c2ccncc2)CC1`: the Activity in experiment [1] came to 3.5%. The IC50 in experiment [2] (read-out: IC50) was determined as 0.84 µM.

As to `O=C(C1CN(S(=O)(=O)c2cccc(Cl)c2Cl)C1)N1CC2CN(c3ccncc3)CC2C1` (stereo not drawn), the Activity in experiment [1] came out at 6.6%.

`O=C(C1CN(S(=O)(=O)c2cccnc2)C1)N1CCN(c2ccncc2)CC1`: the Activity in experiment [1] is 4.9%. In addition, in experiment [2] (read-out: IC50), the IC50 was 0.37 µM.

For the compound `O=C(C1CN(S(=O)(=O)c2cccc(F)c2)C1)N1CC2CN(c3ccncc3)CC2C1` (stereo not drawn), in experiment [1], the Activity amounted to 18.9%. Also, the IC50 in experiment [2] (read-out: IC50) was 3.2 µM.

Turning to `O=C(C1CN(S(=O)(=O)c2cccc3c2OCO3)C1)N1CC2CN(c3ccncc3)CC2C1` (stereo not drawn), in experiment [1], the Activity worked out at 13.5%. Also, the IC50 in experiment [2] (read-out: IC50) was 1.9 µM.

For `O=C(C1CN(S(=O)(=O)c2ccc3cn[nH]c3c2)C1)N1CCN(c2ccncc2)CC1`, in experiment [1], the Activity stood at 33%. Moreover, in experiment [2] (read-out: IC50), the IC50 was greater than 10 µM.

Take `O=C(C1CCN(S(=O)(=O)c2cccc3nsnc23)C1)N1CCN(c2ccncc2)CC1` (racemic): the Activity in experiment [1] worked out at 47.1%. Besides, in experiment [2] (read-out: IC50), the IC50 is greater than 10 µM.

As for `O=C(C1CN(S(=O)(=O)c2ccc3c(c2)OCO3)C1)N1CCN(c2ccncc2)CC1`, the Activity in experiment [1] was 5.3%. For the same compound, the result in experiment [3] and in experiment [5] was Active. Further, the inhibition entry in experiment [4] was “Dose-dependent effect”.

For `O=C(C1CN(S(=O)(=O)c2ccccc2OC(F)(F)F)C1)N1CCN(c2ccncc2)CC1`, the Activity in experiment [1] amounted to 8.4%. Moreover, the IC50 in experiment [2] (read-out: IC50) is 2.5 µM.

Take `O=C(C1CN(S(=O)(=O)c2cccnc2Cl)C1)N1CCN(c2ccncc2)CC1`: the Activity in experiment [1] was 8.2%. Further, the IC50 in experiment [2] (read-out: IC50) turned out to be 1.3 µM.

On to `O=C(C1CN(S(=O)(=O)c2ccc3ncccc3c2)C1)N1CCN(c2ccncc2)CC1`, for which, in experiment [1], the Activity is 8%.

As for `Cn1cc(S(=O)(=O)N2CC(C(=O)N3CCN(c4ccncc4)CC3)C2)cn1`, in experiment [1], the Activity turned out to be 12.3%. In addition, in experiment [2] (read-out: IC50), the IC50 worked out at 1.2 µM.

`Cc1cnccc1N1CCN(C(=O)C2CN(S(=O)(=O)c3cccc4cnccc34)C2)CC1`: in experiment [1], the Activity amounted to 7.3%. Further, in experiment [2] (read-out: IC50), the IC50 turned out to be 0.51 µM.

For `O=C(C1CN(S(=O)(=O)c2cccc(Cl)c2)C1)N1CCN(c2ccncc2)CC1`, the Activity in experiment [1] turned out to be 20.7%.

As for `O=C(C1CCN(S(=O)(=O)c2cccc3nsnc23)CC1)N1CCN(c2ccncc2)CC1`, the IC50 result in experiment [2] (cho) is reported as “Not Active”.

For the compound `Cc1noc(C)c1S(=O)(=O)N1CC(C(=O)N2CCN(c3ccncc3)CC2)C1`, in experiment [1], the Activity came to 15.3%. In addition, the IC50 in experiment [2] (read-out: IC50) was determined as 2.3 µM.

For `O=C(C1CCCN(S(=O)(=O)c2cccc3nsnc23)C1)N1CCN(c2ccncc2)CC1` (racemic), the Activity in experiment [1] was 33.4%. Moreover, the IC50 in experiment [2] (read-out: IC50) was greater than 10 µM.

As for `O=C(C1CN(S(=O)(=O)c2cccc(F)c2)C1)N1CCN(c2ccncc2)CC1`, the Activity in experiment [1] was 9.5%. The IC50 in experiment [2] (read-out: IC50) worked out at 1.7 µM.

Take `Cc1cc(N2CCN(C(=O)C3CN(S(=O)(=O)c4cccc5cnccc45)C3)CC2)cc(C)n1`: the Activity in experiment [1] amounted to 4.7%. In experiment [2] (read-out: IC50), the IC50 turned out to be 0.69 µM.

Take `O=C(C1CN(S(=O)(=O)c2cccc(Cl)c2F)C1)N1CCN(c2ccncc2)CC1`: the Activity in experiment [1] amounted to 11.4%.

Regarding `Cc1cc(S(=O)(=O)N2CC(C(=O)N3CCN(c4ccncc4)CC3)C2)cnc1Cl`, the Activity in experiment [1] was determined as 4.9%.

For `Cc1cc2c(S(=O)(=O)N3CC(C(=O)N4CC5CN(c6ccncc6)CC5C4)C3)cccc2cn1` (stereo not drawn), the Activity in experiment [1] is 14.8%.

`Cc1cc2c(S(=O)(=O)N3CC(C(=O)N4CCN(c5ccncc5)CC4)C3)cccc2cn1`: the Activity in experiment [1] stood at 9.8%.

Turning to `O=C(C1CN(S(=O)(=O)c2ccc(Cl)cn2)C1)N1CCN(c2ccncc2)CC1`, the Activity in experiment [1] is 38.5%. The IC50 in experiment [2] (read-out: IC50) is greater than 10 µM.

In the case of `Cc1cc(N2CCN(C(=O)C3CN(S(=O)(=O)c4cccc5cnccc45)C3)CC2)ccn1`, the Activity in experiment [1] is 3.1%. Besides, the IC50 in experiment [2] (read-out: IC50) worked out at 0.11 µM.

`O=C(C1CN(S(=O)(=O)c2cccc3c(Cl)nccc23)C1)N1CCN(c2ccncc2)CC1`: in experiment [1], the Activity was 3.5%. Also, the IC50 in experiment [2] (read-out: IC50) worked out at 0.74 µM.

Consider `O=C(C1CN(S(=O)(=O)c2cccc3nonc23)C1)N1CC2CN(c3ccncc3)CC2C1` (stereo not drawn), for which the Activity in experiment [1] stood at 12.6%. Besides, in experiment [2] (read-out: IC50), the IC50 came to 2 µM.

`COc1ccc(S(=O)(=O)N2CC(C(=O)N3CCN(c4ccncc4)CC3)C2)cn1`: in experiment [1], the Activity is 20.6%. Besides, the IC50 in experiment [2] (read-out: IC50) is greater than 10 µM.

In the case of `Cc1nc(C(F)(F)F)c(S(=O)(=O)N2CC(C(=O)N3CCN(c4ccncc4)CC3)C2)s1`, the Activity in experiment [1] was determined as 12.7%. For the same compound, the IC50 in experiment [2] (read-out: IC50) came out at 2.5 µM.

In the case of `O=C(C1CN(S(=O)(=O)c2cccnc2Cl)C1)N1CC2CN(c3ccncc3)CC2C1` (stereo not drawn), in experiment [1], the Activity is 9.9%. For the same compound, in experiment [2] (read-out: IC50), the IC50 was 1.5 µM.

For `O=C(C1CN(S(=O)(=O)c2ccc(Cl)nc2)C1)N1CCN(c2ccncc2)CC1`, the Activity in experiment [1] is 5.7%. Besides, the IC50 in experiment [2] (read-out: IC50) came out at 0.5 µM.

For `O=C(C1CN(S(=O)(=O)c2ccc(C(F)(F)F)nc2)C1)N1CCN(c2ccncc2)CC1`, the Activity in experiment [1] was found to be 40.7%. In addition, the IC50 in experiment [2] (read-out: IC50) is greater than 10 µM.

Consider `O=C(C1CN(S(=O)(=O)c2ccc3occc3c2)C1)N1CCN(c2ccncc2)CC1`, for which the Activity in experiment [1] is 10.5%. Moreover, the IC50 in experiment [2] (read-out: IC50) was determined as 2.3 µM.

With `O=C(C1CN(S(=O)(=O)c2cccc3ncccc23)C1)N1CC2CN(c3ccncc3)CC2C1` (stereo not drawn), the Activity in experiment [1] came out at 25.8%. The IC50 in experiment [2] (read-out: IC50) was greater than 10 µM.

Consider `O=C(C1CN(S(=O)(=O)c2cccc3c(Cl)nc(Cl)cc23)C1)N1CCN(c2ccncc2)CC1`, for which the Activity in experiment [1] was found to be 12.7%.

As for `O=C(C1CN(S(=O)(=O)c2cccc3ncccc23)C1)N1CCN(c2ccncc2)CC1`, the Activity in experiment [1] was 8.8%.

Turning to `O=C(C1CN(S(=O)(=O)c2cccc3cnccc23)C1)N1CCN(c2ccncn2)CC1`, in experiment [1], the Activity was determined as 7.3%.

On to `O=C(C1CN(S(=O)(=O)c2cccc3cnccc23)C1)N1CCN(c2ccnc(Cl)c2)CC1`, for which, in experiment [1], the Activity turned out to be 3.6%. In addition, the IC50 in experiment [2] (read-out: IC50) came to 0.18 µM.

For `O=C(C1CN(S(=O)(=O)c2cccc3cnc(Cl)cc23)C1)N1CCN(c2ccncc2)CC1`, the Activity in experiment [1] came out at 6%. Moreover, the IC50 in experiment [2] (read-out: IC50) was found to be 1.6 µM.

`O=C(C1CN(S(=O)(=O)c2cccc3nsnc23)C1)N1CC2CN(c3ccncc3)CC2C1` (stereo not drawn): the Activity in experiment [1] was 16.2%.

`O=C(C1CN(S(=O)(=O)c2cccc3nsnc23)C1)N1CCN(c2ccncc2)CC1`: in experiment [1], the Activity stood at 10.1%. Besides, the IC50 is 2.2 µM in experiment [2] (read-out: IC50) and 2.09 µM in experiment [2] (read-out: pIC50 (converted)).
